The compounds below were run on PC12 cells (assay: Neurite sprouting in PC12 cells). Conditions: 10^-6 M, serum-free vehicle with 50 ng/ml NGF, third day; controls 21.5.
Format: cell-based
Description: The cells are then washed three times in a serum-free vehicle. […] This effect is evaluated by counting the number of cells with neurites at the third day.

Compound | % of the no. of cells with neurites at 3rd day
CCCCCCCCCCCCC/C=C/[C@@H](OC(C)=O)[C@H](CO[C@@H]1O[C@H](COC(C)=O)[C@@H](O[C@@H]2O[C@H](COC(C)=O)[C@H](O[C@@H]3O[C@H](COC(C)=O)[C@H](OC(C)=O)[C@H](O[C@@H]4O[C@H](COC(C)=O)[C@H](OC(C)=O)[C@H](OC(C)=O)[C@H]4OC(C)=O)[C@H]3NC(C)=O)[C@H](O[C@]3(C(=O)OC)C[C@H](OC(C)=O)[C@@H](NC(C)=O)[C@H]([C@H](OC(C)=O)[C@@H](COC(C)=O)OC(C)=O)O3)[C@H]2OC(C)=O)[C@H](OC(C)=O)[C@H]1OC(C)=O)NC(=O)CCCCCCCCCCCCCCCCC [Methylic ester of peracetylated GM1, Peracetylated derivative of the methyl ester of the ganglioside GM1] | 29.4%
CCCCCCCCCCCCC/C=C/[C@@H](OC(C)=O)[C@H](CO[C@@H]1O[C@H](COC(C)=O)[C@@H](O[C@@H]2O[C@H](COC(C)=O)[C@H](O[C@@H]3O[C@H](COC(C)=O)[C@H](OC(C)=O)[C@H](O[C@@H]4O[C@H](COC(C)=O)[C@H](OC(C)=O)[C@H](OC(C)=O)[C@H]4OC(C)=O)[C@H]3NC(C)=O)[C@H](O[C@]3(C(=O)O)C[C@H](OC(C)=O)[C@@H](NC(C)=O)[C@H]([C@H](OC(C)=O)[C@@H](COC(C)=O)OC(C)=O)O3)[C@H]2OC(C)=O)[C@H](OC(C)=O)[C@H]1OC(C)=O)NC(=O)CCCCCCCCCCCCCCCCC [Peracetylated GM1, Peracetylated derivative of the ganglioside GM1] | 30.2%
CCCCCCCCCCCCC/C=C/[C@@H](O)[C@H](CO[C@@H]1O[C@H](CO)[C@@H](O[C@@H]2O[C@H](CO)[C@H](O[C@@H]3O[C@H](CO)[C@H](O)[C@H](O[C@@H]4O[C@H](CO)[C@H](O)[C@H](O)[C@H]4O)[C@H]3NC(C)=O)[C@H](O[C@]3(C(=O)OC(C)(C)C)C[C@H](O)[C@@H](NC(C)=O)[C@H]([C@H](O)[C@H](O)CO)O3)[C@H]2O)[C@H](O)[C@H]1O)NC(=O)CCCCCCCCCCCCCCCCC [Tertiarbutylic ester of GM1, Tertiary butyl ester of the ganglioside GM1] | 32.3%

Reference: patent US4713374A, “Ganglioside derivatives” (priority 1984, dated 1987)
